Experimental data: US20220162257A1, “3ALPHA, 5BETA-NEUROACTIVE STEROIDS FOR THE TREATMENT OF EPILEPSY AND SEIZURE DISEASES” (USTAV ORGANICKE CHEMIE A BIOCHEMIE AV CR, V. V. I., priority 2019, published 2022)

Legend:
latency to feed in rats = assay: Novelty suppressed feeding model (NSF); format: in vivo, rat
Description: (§1) Anticonvulsant effect of compounds was evaluated in two models of epileptic seizures in immature rats (PTZ model and 6 Hz model). PTZ convulsions were tested in 12- and 25-day-old rats, 6 Hz-induced seizures in 15- and 25-day-old rats. Young adult rats (P60) were also used in either test. Day of birth was taken as P0. Experiments evaluating precognitive effect were performed in adult male rats of the Wistar and Long Evans strain (3 months old, b.w. 300-400 g). All animals were obtained from a breeding facility of Institute of Physiology CAS (certificate No. 1396/2014-MZE-17214) Animals were held in standard conditions (21±1° C., humidity 50-60%, light regime 12/12) with unrestricted access to food and water. All manipulations with animals were performed according to the https://nc3rs.org.uk/arrive-guidelines and to Czech Animal Protection Law 246/1992 Sb. And international directives (EU Directive 2010/63/EU for animals' experiments).
Behavioral models of the affective disorders are based on exposure to stress. Two behavioral tests were performed: the Elevated plus maze test (EPM, Nat. Protoc. 2007, 2, 322) and the Novelty suppressed feeding model (NSF, Interdiscip. Toxicol. 2017, 10, 40).
In the NSF test, the Compound from Example 1 was administered i.p. 30 min before the test at doses 0.1; 0.3; 1; 3 and 10 mg/kg.

[1] = test system: PTZ-induced seizures in zebrafish (Danio rerio); assay: pentetrazol (PTZ)-induced seizures in zebrafish larvae; format: in vivo; conditions: 7 dpf larvae, PTZ 5 mmol/L
Description: Adults wild-type (strain AB) zebrafish (Danio rerio) were maintained at 28-29° C. on a light cycle of 14 h light:10h dark (lights on at 7 am; lights off at 9 pm) at ZeClinics animal facility (Barcelona). All procedures involving animals and their care were conducted accordingly to CEA-OH/9421/2 authorization from Government of Catalonia. Embryos obtained by pairwise mating were raised in E3 media at the controlled temperature of 28.5° C. until 7 days post-fertilization (dpf) when the experiments were performed.
The anticonvulsant activity of the claimed compounds on the nervous system of zebrafish (Danio rerio). This test is the modern alternative to tests in adult animals as Danio rerio is very versatile organism that has a number of physiological similarities to mammals, including humans (Expert Opin. Drug Metab. Toxicol. 2009, 5, 393). Steroidal compounds were tested in three concentrations (1, 3 and 5 μmol.L^−1) on 7 days post-fertilization (dpf) wild-type larvae. As a negative control, sibling larvae were incubated with DMSO 1%, which allows us to detect behavioral alterations of PTZ treated larvae. Seizures were induced by treatment of pentetrazol (PTZ) at the dose 5 mmol.L^−1. Commercially available anti-convulsant drug Topiramate was used as comparator. Results were analyzed with GraphPad Prism software and statistical significance is assessed by the One-way ANOVA statistical analysis followed by Tukey's multiple comparisons test. The zebrafish larvae locomotion and response to visual stimuli are traced and analyzed by the EthoVision XT 12 software and the DanioVision device from Noldus Information Technologies, Wageningen, The Netherlands.
This closed system consists of a camera placed above a chamber with circulating water and a temperature sensor that is set at 28° C. Individualized larvae in a 48-wells plate are placed in the chamber, which can provide different stimuli (light/dark environment, tapping, sound) controlled by the software. Prior to each experiment, larvae were left for 10 minutes in dark for acclimation, then predetermined series of alternating dark and light environment are presented to the larvae. The final experimental protocol is divided in three main part: first a 15 minutes step with light on, then a series of 5 short flashes of light to induce epileptic seizures and finally a 25 minutes dark/light alternating environments phase. Different sets of information can be extrapolated from the different phases: while the first step is useful to detect changes in the total larvae locomotion, the second part allows us to analyze the larval response to a seizure-inducing visual stimulus and measure the seizure characteristics: the maximum velocity and the number of angles turns (specific of seizure erratic movement). The final phase is useful to detect anomalies in larval movement and deviations from the stereotyped behavior (natural locomotor behavior of zebrafish is active in dark and immobile in light). The anticonvulsant effect of compounds was studied at doses of […] for the compound shown in Example 1, Example 2 and Example 3.

[2] = test system: anxiety parameters in rats; assay: Elevated plus maze test (EPM); format: in vivo, rat; conditions: 10 mg/kg i.p., 30 minutes before maze testing
Description: as §1
Behavioral models of the affective disorders are based on exposure to stress. […]
In the EPM test, the Compound from Example 1 was administered at doses of 1, 3 and 10 mg/kg, i.p. 30 minutes before maze testing. Time spent in open arms, closed arms, and central platform were recorded during a 10-min test session.

[3] = test system: NMDA lesion of the dorsal hippocampus in male rats; assay: bilateral excitotoxic NMDA lesion of the dorsal hippocampus; format: in vivo, rat; conditions: 1 mg/kg i.p. 5 minutes after NMDA lesion, evaluated 24 h
Description: The tissue damage is induced by infusing NMDA (25 mmol.L^−1) into the dorsal hippocampus in the male rats. The figures in panel (FIG. 9A) show representative images of brain slices of control animals, in panel (FIG. 9B) the group of animals which were administered the solutions containing NMDA into dorsal hippocampus (NMDA lesion) and i.p. treated by (2-hydroxypropyl)-β-cyclodextrin (CDX) and in panel (FIG. 9C) brain slices of the animals, with NMDA lesions of the dorsal hippocampus and i.p. treated by the Compound of Example 1 at a dose of 1 mg/kg dissolved in CDX.
The neuroprotective effect of the Compound from Example 1 was tested in the model of bilateral excitotoxic lesion of the dorsal hippocampus. The procedure was performed according to literature (Neuropharmacology 2011, 61, 61). This model simulates the overstimulation of NMDA receptors that occurs in the number of pathophysiological states, leading to calcium flow into the neuron's and, consequently, to apoptosis […] necrosis. Clinically, this phenomenon is manifested by neurodegeneration and CNS damage. Rats were randomly divided into three groups. […] Histological damage, e.g. the neuroprotective effect of Compound from Example 1 was evaluated by staining damaged neurons with Fluoro Jade B (Merck Millipore, Catalog Number AG310-30MG), and evaluated areas included: hippocampus-DG, hilus, CA3, CA1.

CC(=O)[C@H]1CC[C@H]2[C@@H]3CC[C@@H]4C[C@H](OC(=O)C5CCC(=O)N5)CC[C@]4(C)[C@H]3CC[C@]12C (stereo partly drawn) [Example 1, (3R,5R,8R,9S,10S,13S,14S,17S)-17-Acetyl-10,13-dimethylhexadecahydro-1H-cyclopenta[a]fenantren-3-yl 5-oxopyrrolidine-2-carboxylate]
latency to feed (anxiolytic parameter) (latency to feed in rats; 0.3 mg/kg i.p., 30 min before the test): significant decrease in latency to feed
latency of feed intake (latency to feed in rats; 1 and 3 mg/kg i.p.): trend to decrease the latency of feed intake
epileptiform locomotor activity in the dark phase/light test, sedation ([1]; doses of 1, 3 and 5 mg/kg): decreased epileptiform locomotor activity in the dark phase/light test without causing sedation
locomotor activity epileptiform induced by PTZ (spontaneous locomotor activity, maximum velocity, angle turns) ([1]; doses of 1, 3 and 5 mg/kg (1, 3 and 5 μmol/L in the source)): significantly reduced the locomotor activity epileptiform induced by PTZ
anxiety parameters [2]: significant reduction of anxiety parameters
dorsal hippocampus damage (Fluoro Jade B staining) [3]: significant reduction in the dorsal hippocampus damage
